# Results published in patent US20090023186A1, “USE OF VALPROIC ACID FOR ENHANCING PRODUCTION OF RECOMBINANT PROTEINS IN MAMMALIAN CELLS” (EXCELLGENE SA, priority 2007, published 2009).
# Test system: CHO DG44 cells
# Assay: Transient IgG expression, batch titer by ELISA, VPA concentration series (Example 1)
# Assay type: cell-based, Chinese Hamster
# Conditions: for Fold increase over control / Batch titer: IgG, day 5 after transfection; for Batch titer: 37° C.
# Description: 10 million suspension-adapted HEK293E cells were resuspended in 0.5 ml of Ex-Cell 293 HEK 293 serum-free medium with 4 mmol/l L-glutamine (Cat. No. 14571C-1000 M; Lot No. 6A0093; SAFC Biosciences, Lenexa, Kans., USA, “Ex-Cell” medium; note: “Ex-Cell” medium-as used herein-refers to a medium comprising 4 mmol/l L-glutamine) in a 50-ml filter tube each (TPP AG, Trasadingen, Switzerland; Cat. No. 87050, Lot 20050174). In a separate set, 10 million suspension-adapted CHO DG44 cells were resuspended in 0.5 ml of ProCHO5 serum-free medium with 4 mmol/[…] hypoxanthine and 0.194 g/l thymidine (BioWhittaker (Lonza), Belgium; Cat. No. BE12-[…]; Lot No. 7 MB0040; “ProCHO5” medium; note: “ProCHO5” medium-as used herein-refers to a medium comprising 4 mmol/[…] hypoxanthine and 0.194 g/l thymidine) in a 50-ml filter tube each (TPP AG, Trasadingen, Switzerland; Cat. No. 87050, Lot 20050174). Then 12.5 μg plasmid DNA at a concentration of 1 μg/μl was added in each tube with the following composition 50% (6.25 μg) p-LC (SEQ ID NO: 1) 50% (6.25 μg) p-HC (SEQ ID NO: 3). Plasmid p-LC comprises the genetic information for the production of the light chain of an IgG antibody, plasmid p-HC comprises the genetic information for the production of the heavy chain of an IgG antibody. The particular vector constructs used in the present invention can also be obtained from the inventors. The inventors can be contacted via e-mail at […]. Moreover, commercial services do exist that produce any desired nucleotide sequence even comprising several kilobase pairs including complete expression cassettes in plasmid backgrounds (e.g., Invitrogen, Carlsbad, USA; Geneart, Germany.) Thus, providing the genetic sequence information of the plasmids should enable one of ordinary skill in the art to order the plasmids of the present invention at one of the commercial services listed. After shortly mixing the DNA with the cells by gentle shaking, 25 μg of 25-kd linear polyethyleneimine (“PEI”; Polysciences, Eppelheim, Germany; [2]) were added at a concentration of 1 μg/μl to each of the tubes. After shortly mixing by gentle shaking, the filter tubes containing the cells together with the DNA and PEI were transferred into an orbital shaker (Kühner Shaker Cabinet ISF-4-W, “Kühner shaker”, Kühner AG, Birsfelden, Switzerland), and the cells were incubated for 4 hours at 37° C. in a 5% CO2 atmosphere under shaking at 180 rpm. After that time, 4.5 ml of Ex-Cell medium were added to each of the filter tubes containing HEK 293 cells and 4.5 ml of Pro-CHO5 were added to each of the filter tubes containing CHO DG44 cells. Then, valproic acid was added to each of the tubes at the corresponding final concentration. The cells then were returned into the Kühner shaker and incubated at 37° C. in a 5% CO2 atmosphere under shaking at 180 rpm. […] The ELISA was performed as published in prior art. In short, Goat anti-human kappa light chain IgG (Biosource) was used for coating the ELISA-plates, and with AP-conjugated goat anti-human gamma chain IgG (Biosource) the synthesized IgG1 was detected. NPP was used as a substrate for the alkaline phosphatase. Absorption was measured at 405 nm against 490 nm using a microplate reader (SPECTRAmaxTM340; Molecular Devices, Palo Alto, Calif., USA).
structure (smiles),measurement,setting,value
"CCCC(CCC)C(=O)O [VPA, valproic acid]",Fold increase over control,0.05 mmol/l final VPA,1 fold
same,Batch titer,0.05 mmol/l final VPA,7.4 ± 1.1 mg/L
same,Fold increase over control,0.1 mmol/l final VPA,1.3 fold
same,Batch titer,0.1 mmol/l final VPA,10.0 ± 1.5 mg/L
same,Fold increase over control,0.2 mmol/l final VPA,1.8 fold
same,Batch titer,0.2 mmol/l final VPA,13.7 ± 1.2 mg/L
same,Fold increase over control,0.5 mmol/l final VPA,2.1 fold
same,Batch titer,0.5 mmol/l final VPA,16.3 ± 1.3 mg/L
same,Fold increase over control,1 mmol/l final VPA,1.9 fold
same,Batch titer,1 mmol/l final VPA,14.4 ± 1.2 mg/L
same,Fold increase over control,2 mmol/l final VPA,1.3 fold
same,Batch titer,2 mmol/l final VPA,10.0 ± 0.9 mg/L
same,Fold increase over control,3 mmol/l final VPA,1.0 fold
same,Batch titer,3 mmol/l final VPA,7.4 ± 1.2 mg/L
same,optimal final concentration,"for batch titer, CHO DG44 cells, day 5",around 0.5 mmol/l
